Assay results published in US20240060138A1, “BREAST CANCER-RESPONSE PREDICTION SUBTYPES” (The Regents of The University of California, priority 2022, published 2024).

Tested on: high-risk stage II and III early breast cancer
Assay: I-SPY2 neoadjuvant platform trial: pCR rate by arm within receptor or response-predictive subtype
Type: in vivo, women
Excerpt: I-SPY2 is an ongoing, open-label, adaptive, randomized phase II, multicenter trial of neoadjuvant therapy for early-stage breast cancer (NCT01042379; IND 105139). It is a platform trial evaluating multiple investigational arms in parallel against a common standard of care control arm. The primary endpoint is pCR (ypT0/is, ypN0), defined as the absence of invasive cancer in the breast and regional nodes at the time of surgery. As I-SPY2 is modified intent-to-treat, patients receiving any dose of study therapy are considered evaluable; those who switch to non-protocol therapy, progress, forgo surgery, or withdraw are deemed ‘non-pCR’. Secondary endpoints include residual cancer burden (RCB) and event-free and distant relapse-free survival (EFS and DRFS) (Symmans et al., 2007)
Assessments at screening establish eligibility and classify participants into subtypes defined by hormone receptor (HR) status, HER2, and 70-gene signature (MammaPrint®) status (Cardoso et al., 2016; Piccart et al., 2021). Adaptive randomization in I-SPY2 preferentially assigns patients to trial arms according to continuously updated Bayesian probabilities of pCR rates within each biomarker signature; 20% of patients are randomly assigned to the control arm (Berry, 2011). […] An arm can be dropped for futility if the predicted probability of success in a future 300-patient, 1:1 randomized, phase 3 trial drops below 10%, or graduate for efficacy if the probability of success reaches 85% or greater in any biomarker signature. The clinical control arm for the efficacy analysis uses patients randomized throughout the entire trial. […] During the design of each new experimental arm the investigators together with the pharmaceutical sponsor decide in which of the 10 a priori defined biomarker signatures the drug will be tested. Upon entry to the trial, participants are dichotomized into hormone receptor (HR) negative versus positive, HER2 positive versus negative, and MammaPrint High1 [MP1] versus High2 [MP2] status.
This correlative study involved 987 women with high-risk stage II and III early breast cancer who were enrolled in 10 arms of I-SPY2: the first 9 experimental arms that completed evaluation and the control arm as shown in the schema of FIG. 1A. […] For HER2+ patients, N was administered instead of H, whereas M and trebananib were administered in addition to H. Dose reductions and toxicity management were specified in the protocol. Adverse events were collected according to the NCI Common Terminology Criteria for Adverse Events (CTCAE) version 4.0. After completion of AC, patients underwent lumpectomy or mastectomy and nodal sampling, with choice of surgery at the discretion of the treating surgeon. Detailed descriptions of the design, eligibility, and efficacy of these 9 experimental arms of the I-SPY2 trial have been reported previously (Chien et al., 2019; Clark et al., 2021; Nanda et al., 2020; Park et al., 2016; Pusztai et al., 2021; Rugo et al., 2016).
A major goal of a response-predictive schema is to increase the pCR rate in the population and to maximize the probability of pCR for an individual patient (R2).

## ganitumab
RPS-7 S4: HR-/HER2low/Immune-/DRD-
  pCR rate: 40%

## pertuzumab
HER2+/BP-Luminal class (RPS-5)
  pCR rate: 8%

## pembrolizumab
HER2-/Immune+ (RPS-5)
  pCR rate: 79%
HR+HER2- receptor subtype
  pCR rate: 30%
RPS-7 S3: HER2=0.or.low/Immune+
  pCR rate: 79%
TN receptor subtype
  pCR rate: 66%
TN, Immune+ patients
  pCR rate: 89%
TN, Immune+/DRD+ class
  pCR rate: 92%
TN, Immune+/DRD- class
  pCR rate: 80%
TN, Immune-/DRD+ class
  pCR rate: 33%

## veliparib/carboplatin [VC]
HER2-/Immune-/DRD+ (RPS-5)
  pCR rate: 60%
RPS-7 S5: HER2=0.or.low/Immune-/DRD+
  pCR rate: 60%
TN, DRD+ patients
  pCR rate: 75%
TN, Immune+/DRD+ class
  pCR rate: 74%
TN, Immune-/DRD+ class
  pCR rate: 80%

## CCOc1cc2ncc(C#N)c(Nc3ccc(OCc4ccccn4)c(Cl)c3)c2cc1NC(=O)/C=C/CN(C)C [N, neratinib]
RPS-7 S6: HER2=0/Immune-/DRD-
  pCR rate: 20%

## NC1(c2ccc(-c3nc4ccn5c(=O)[nH]nc5c4cc3-c3ccccc3)cc2)CCC1 [MK2206, 8-[4-(1-aminocyclobutyl)phenyl]-9-phenyl-2H-[1,2,4]triazolo[3,4-f][1,6]naphthyridin-3-one]
HER2+/BP-HER2 or BP-Basal patients (RPS-5)
  pCR rate: 48%
HER2+/BP-Luminal class (RPS-5)
  pCR rate: 60%
HER2-/Immune-/DRD- (RPS-5)
  pCR rate: 20%
RPS-7 S2: HER2+/BP Luminal
  pCR rate: 60%
RPS-7 S6: HER2=0/Immune-/DRD-
  pCR rate: 20%
RPS-7 S7: HR+HER2low/Immune-DRD-
  pCR rate: 20%
